# Source: article PMC5390467, “Novel lead structures with both Plasmodium falciparum gametocytocidal and asexual blood stage activity identified from high throughput compound screening” (Malaria Journal, 2017)
# Where “and” joins values, the source holds several entries; their conditions need not be identical. Equal values may be shown once.
# Columns and labels:
# [1] = test system: P. falciparum NF54 gametocytes; test: gametocyte viability assay (AlamarBlue); assay type: cell-based, Plasmodium falciparum
# Protocol: Asexual parasites of P. falciparum strain NF54 were cultured as described previously. Briefly, parasites were maintained in RPMI 1640 medium containing 10% positive human serum + erythrocytes (5% haematocrit), 2.5% sodium bicarbonate and 11 µg/mL gentamicin at 37 °C with 5% CO2, 5% O2 and 90% N2. Gametocyte cultures were set up at 0.1% parasitaemia and on days 9–10 treated with 50 mM N-acetylglucosamine (NAG) to block further asexual growth. Stage III–V gametocytes were isolated by Percoll density gradient centrifugation on day 12 and returned to culture for 24 h before being used in the assay. At the time of the assay over 73% of the gametocytes were stage IV or V (Additional file 1). HepG2 cells (ATCC, cat. no. 77400) were cultured in 175-cm^2 tissue culture flasks with 30 ml growth medium at 37 °C in a 5% CO2 and 5% O2 humidified atmosphere. Growth medium was made with Dulbecco’s Modified Eagle Medium with 10% fetal bovine serum (FBS). Growth medium was replaced every other day and cells were passaged at 75% confluence.
# Compounds from the Sytravon library (a retired Pharma screening collection that contains a diversity of novel small molecules, with an emphasis on medicinal chemistry-tractable scaffolds) were obtained as powder samples and dissolved in DMSO as […] stock solutions. Compound screening experiments were performed as previously described. In the primary screen, two concentrations for each compound were tested. No technical and biological replicates were involved. In the follow-up confirmation studies, three biological replicates were tested for each compound in both parasite assays. The positive control was 46 µM of Torin 2 and negative control was DMSO. Briefly, 2.5 μL/well incomplete medium was dispensed into each well of 1536-well plates using the Multidrop Combi followed by 23 nL compound transferring using the NX-TR Pintool (WAKO Scientific Solutions, San Diego, CA). Then, 2.5 μL/well of gametocytes was dispensed with a seeding density of 20,000 cells/well using the Multidrop Combi. The assay plates were incubated for 72 h at 37 °C with 5% CO2. After addition of 5 μL/well of 2X AlamarBlue dye (Life Technologies, cat. no. DAL1100), the plates were incubated for 24 h at 37 °C with 5% CO2 and then were read in a fluorescence detection mode (Ex = 525 nm, Em = 598 nm) on a ViewLux plate reader (PerkinElmer).
# 468 human kinases = test: human kinase profiling (Kinome scan, DiscoverX), whole panel; assay type: binding
# [2] = target: T1, ABL1(Q252H)-phosphorylated (Homo sapiens, UniProt P00519, Q252H); test: Kinome scan profile; assay type: binding; conditions: 10 μM
# T1 construct: purchased DiscoverX (KINOMEscan)
# CDK4-cyclinD3 = target: T2, CDK4-cyclinD3 (Homo sapiens, UniProt P11802); test: Kinome scan profile; assay type: binding; conditions: 10 μM
# T2 construct: purchased DiscoverX (KINOMEscan)
# TRKA = target: T3, TRKA (Homo sapiens, UniProt P04629); test: Kinome scan profile; assay type: binding; conditions: 10 μM
# T3 construct: purchased DiscoverX (KINOMEscan)
# PRKG2 = target: T4, PRKG2 (Homo sapiens, UniProt Q13237); test: Kinome scan profile; assay type: binding; conditions: 10 μM
# T4 construct: purchased DiscoverX (KINOMEscan)
# T4 sequence (Q13237 1-762): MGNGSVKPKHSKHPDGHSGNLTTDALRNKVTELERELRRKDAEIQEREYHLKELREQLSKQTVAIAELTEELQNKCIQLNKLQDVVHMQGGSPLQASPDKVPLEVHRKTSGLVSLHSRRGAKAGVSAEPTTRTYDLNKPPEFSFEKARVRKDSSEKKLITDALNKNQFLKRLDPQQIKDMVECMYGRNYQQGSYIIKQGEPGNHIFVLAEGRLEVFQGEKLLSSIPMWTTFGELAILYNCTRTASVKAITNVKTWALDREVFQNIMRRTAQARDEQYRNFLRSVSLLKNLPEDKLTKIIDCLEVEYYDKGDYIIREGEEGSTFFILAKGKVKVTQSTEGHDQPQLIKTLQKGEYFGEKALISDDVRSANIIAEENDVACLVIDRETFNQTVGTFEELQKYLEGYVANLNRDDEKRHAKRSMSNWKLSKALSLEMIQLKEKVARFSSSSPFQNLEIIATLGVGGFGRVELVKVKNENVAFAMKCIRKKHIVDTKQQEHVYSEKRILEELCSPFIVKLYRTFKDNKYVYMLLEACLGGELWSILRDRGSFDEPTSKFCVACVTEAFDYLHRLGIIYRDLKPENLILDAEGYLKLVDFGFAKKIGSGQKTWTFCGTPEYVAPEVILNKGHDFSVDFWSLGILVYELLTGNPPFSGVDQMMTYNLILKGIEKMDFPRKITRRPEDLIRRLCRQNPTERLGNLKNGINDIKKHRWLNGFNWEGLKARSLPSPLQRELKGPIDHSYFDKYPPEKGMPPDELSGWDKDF
# KIT(A829P) = target: T5, KIT(A829P) (Homo sapiens, UniProt P10721, A829P); test: Kinome scan profile; assay type: binding; conditions: 10 μM
# T5 construct: purchased DiscoverX (KINOMEscan)
# MAP3K3 = target: T6, MAP3K3 (Homo sapiens, UniProt Q99759); test: Kinome scan profile; assay type: binding; conditions: 10 μM
# T6 construct: purchased DiscoverX (KINOMEscan)
# T6 sequence (Q99759 1-626): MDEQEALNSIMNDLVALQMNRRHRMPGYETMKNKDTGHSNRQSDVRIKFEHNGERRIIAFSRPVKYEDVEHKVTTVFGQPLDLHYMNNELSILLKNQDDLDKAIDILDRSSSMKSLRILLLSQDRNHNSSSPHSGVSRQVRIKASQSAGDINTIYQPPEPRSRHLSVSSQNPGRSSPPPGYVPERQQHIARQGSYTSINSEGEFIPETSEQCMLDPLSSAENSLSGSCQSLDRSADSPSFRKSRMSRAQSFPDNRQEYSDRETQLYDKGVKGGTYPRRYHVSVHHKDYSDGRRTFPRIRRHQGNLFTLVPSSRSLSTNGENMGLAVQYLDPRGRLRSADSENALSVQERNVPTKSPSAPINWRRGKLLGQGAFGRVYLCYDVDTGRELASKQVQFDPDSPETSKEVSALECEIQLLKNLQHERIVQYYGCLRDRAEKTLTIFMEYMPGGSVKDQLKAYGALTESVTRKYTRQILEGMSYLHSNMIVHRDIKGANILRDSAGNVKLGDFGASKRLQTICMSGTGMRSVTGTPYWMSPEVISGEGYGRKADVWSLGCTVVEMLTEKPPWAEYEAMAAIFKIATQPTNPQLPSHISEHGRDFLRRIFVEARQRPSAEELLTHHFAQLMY
# MST4 = target: T7, MST4 (Homo sapiens, UniProt Q9P289); test: Kinome scan profile; assay type: binding; conditions: 10 μM
# T7 construct: purchased DiscoverX (KINOMEscan)
# T7 sequence (Q9P289 whole entry): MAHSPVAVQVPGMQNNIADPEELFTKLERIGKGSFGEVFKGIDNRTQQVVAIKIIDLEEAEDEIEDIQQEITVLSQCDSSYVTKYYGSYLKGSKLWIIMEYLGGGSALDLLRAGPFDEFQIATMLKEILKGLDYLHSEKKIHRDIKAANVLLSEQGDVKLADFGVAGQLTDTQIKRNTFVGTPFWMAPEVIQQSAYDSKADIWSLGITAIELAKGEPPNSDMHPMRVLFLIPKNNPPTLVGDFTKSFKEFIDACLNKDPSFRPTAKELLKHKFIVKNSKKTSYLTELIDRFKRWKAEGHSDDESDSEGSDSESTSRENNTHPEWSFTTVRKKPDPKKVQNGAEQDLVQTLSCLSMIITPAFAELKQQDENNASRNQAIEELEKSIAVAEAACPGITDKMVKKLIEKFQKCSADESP
# T2 sequence (P11802 whole entry): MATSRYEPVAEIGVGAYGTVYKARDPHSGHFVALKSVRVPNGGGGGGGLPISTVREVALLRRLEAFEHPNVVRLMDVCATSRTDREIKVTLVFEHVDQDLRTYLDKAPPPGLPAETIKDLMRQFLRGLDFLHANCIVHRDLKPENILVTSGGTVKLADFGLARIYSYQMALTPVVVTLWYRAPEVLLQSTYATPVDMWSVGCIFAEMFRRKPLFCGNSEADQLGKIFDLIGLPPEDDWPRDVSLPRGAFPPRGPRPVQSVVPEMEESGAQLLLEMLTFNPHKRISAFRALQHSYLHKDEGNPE
# T2 sequence (P30281 whole entry partner): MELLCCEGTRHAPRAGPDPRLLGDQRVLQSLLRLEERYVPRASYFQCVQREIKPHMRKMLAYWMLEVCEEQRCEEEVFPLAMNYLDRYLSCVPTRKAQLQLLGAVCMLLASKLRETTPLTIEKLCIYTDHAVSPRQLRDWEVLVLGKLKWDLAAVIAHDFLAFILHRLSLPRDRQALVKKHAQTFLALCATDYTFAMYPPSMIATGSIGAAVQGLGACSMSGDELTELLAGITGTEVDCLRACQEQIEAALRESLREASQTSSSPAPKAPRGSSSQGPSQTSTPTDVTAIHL
# T5 sequence (P10721 26-976 A829P): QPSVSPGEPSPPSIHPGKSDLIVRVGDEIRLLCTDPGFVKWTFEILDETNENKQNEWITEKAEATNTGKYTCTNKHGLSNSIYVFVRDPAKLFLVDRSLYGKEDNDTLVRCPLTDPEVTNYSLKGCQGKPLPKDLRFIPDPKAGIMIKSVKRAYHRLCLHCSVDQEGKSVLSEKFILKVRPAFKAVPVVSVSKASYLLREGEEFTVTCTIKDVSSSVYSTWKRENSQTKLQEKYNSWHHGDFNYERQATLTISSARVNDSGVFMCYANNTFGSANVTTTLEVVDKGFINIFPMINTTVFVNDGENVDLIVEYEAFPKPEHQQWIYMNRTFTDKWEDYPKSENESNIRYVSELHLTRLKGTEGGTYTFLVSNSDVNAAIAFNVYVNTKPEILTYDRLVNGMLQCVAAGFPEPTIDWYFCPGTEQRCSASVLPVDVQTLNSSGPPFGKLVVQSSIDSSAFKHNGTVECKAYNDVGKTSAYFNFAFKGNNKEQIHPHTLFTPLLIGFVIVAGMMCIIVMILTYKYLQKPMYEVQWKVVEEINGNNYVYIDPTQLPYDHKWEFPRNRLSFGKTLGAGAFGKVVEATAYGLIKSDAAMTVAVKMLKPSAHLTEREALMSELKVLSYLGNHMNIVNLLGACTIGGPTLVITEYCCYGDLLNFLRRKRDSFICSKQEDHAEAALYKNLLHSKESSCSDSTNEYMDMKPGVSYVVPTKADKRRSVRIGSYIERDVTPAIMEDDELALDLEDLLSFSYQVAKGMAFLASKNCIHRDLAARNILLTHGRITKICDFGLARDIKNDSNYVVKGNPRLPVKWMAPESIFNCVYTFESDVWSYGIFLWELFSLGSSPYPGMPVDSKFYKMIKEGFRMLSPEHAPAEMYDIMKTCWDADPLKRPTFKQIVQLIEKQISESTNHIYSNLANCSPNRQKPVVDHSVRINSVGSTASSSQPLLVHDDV
# T3 sequence (P04629 33-796): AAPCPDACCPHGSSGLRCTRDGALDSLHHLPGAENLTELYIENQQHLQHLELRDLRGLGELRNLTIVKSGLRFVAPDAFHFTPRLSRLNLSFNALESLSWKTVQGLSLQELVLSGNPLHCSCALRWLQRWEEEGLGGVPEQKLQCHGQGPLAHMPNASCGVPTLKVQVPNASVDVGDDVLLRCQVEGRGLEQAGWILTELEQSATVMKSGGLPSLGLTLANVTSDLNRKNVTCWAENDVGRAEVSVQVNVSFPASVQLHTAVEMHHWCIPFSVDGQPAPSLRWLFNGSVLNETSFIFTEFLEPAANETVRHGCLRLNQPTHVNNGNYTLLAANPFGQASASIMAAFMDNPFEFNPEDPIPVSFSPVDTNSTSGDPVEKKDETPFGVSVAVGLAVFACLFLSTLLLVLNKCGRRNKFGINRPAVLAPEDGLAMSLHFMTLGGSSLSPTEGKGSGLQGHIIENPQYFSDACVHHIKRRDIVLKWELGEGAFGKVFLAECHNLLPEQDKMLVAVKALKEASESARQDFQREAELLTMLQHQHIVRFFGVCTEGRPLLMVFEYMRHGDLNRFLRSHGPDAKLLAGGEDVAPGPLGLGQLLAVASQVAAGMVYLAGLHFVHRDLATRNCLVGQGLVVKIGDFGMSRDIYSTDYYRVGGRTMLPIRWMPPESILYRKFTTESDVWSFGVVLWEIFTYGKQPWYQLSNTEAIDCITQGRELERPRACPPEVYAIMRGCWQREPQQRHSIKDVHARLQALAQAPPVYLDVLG
smiles,measurement,setting,value
CCN1CCN(Cc2c(O)ccc3c(=O)c(Oc4ccccc4C(C)C)c(C(F)(F)F)oc23)CC1 [NCGC00100599],IC50,"[1]; P. falciparum NF54 stage III-V gametocytes, 72 h, AlamarBlue, mean ± SD, n = 3",4.18 µM and 4.34 µM
same,Asexual/Gametocyte,[1]; ratio of asexual IC50 to gametocyte IC50,0.08
same,"number of human kinases interacting (Interactions Mapped, 468 Assays Tested)",468 human kinases; 10 μM,16
same,S-Score(35),"468 human kinases; 10 µM, 468 assays",0.03
same,"% Control, ABL1(Q252H)-phosphorylated",[2],9.9 % Control
same,"% Control, CDK4-cyclinD3",CDK4-cyclinD3,15 % Control
same,"% Control, TRKA",TRKA,22 % Control
same,"% Control, PRKG2",PRKG2,32 % Control
same,"% Control, KIT(A829P)",KIT(A829P),34 % Control
same,"% Control, MAP3K3",MAP3K3,34 % Control
same,"% Control, MST4",MST4,34 % Control
